The results in this text go back to patent publication US11339130B1 (Blade Therapeutics, Inc., priority 2016, dated 2022).

The target of one test is T1, Human Calpain 1/NS1 (Homo sapiens, UniProt P07384).
T1 sequence (P07384 1-714): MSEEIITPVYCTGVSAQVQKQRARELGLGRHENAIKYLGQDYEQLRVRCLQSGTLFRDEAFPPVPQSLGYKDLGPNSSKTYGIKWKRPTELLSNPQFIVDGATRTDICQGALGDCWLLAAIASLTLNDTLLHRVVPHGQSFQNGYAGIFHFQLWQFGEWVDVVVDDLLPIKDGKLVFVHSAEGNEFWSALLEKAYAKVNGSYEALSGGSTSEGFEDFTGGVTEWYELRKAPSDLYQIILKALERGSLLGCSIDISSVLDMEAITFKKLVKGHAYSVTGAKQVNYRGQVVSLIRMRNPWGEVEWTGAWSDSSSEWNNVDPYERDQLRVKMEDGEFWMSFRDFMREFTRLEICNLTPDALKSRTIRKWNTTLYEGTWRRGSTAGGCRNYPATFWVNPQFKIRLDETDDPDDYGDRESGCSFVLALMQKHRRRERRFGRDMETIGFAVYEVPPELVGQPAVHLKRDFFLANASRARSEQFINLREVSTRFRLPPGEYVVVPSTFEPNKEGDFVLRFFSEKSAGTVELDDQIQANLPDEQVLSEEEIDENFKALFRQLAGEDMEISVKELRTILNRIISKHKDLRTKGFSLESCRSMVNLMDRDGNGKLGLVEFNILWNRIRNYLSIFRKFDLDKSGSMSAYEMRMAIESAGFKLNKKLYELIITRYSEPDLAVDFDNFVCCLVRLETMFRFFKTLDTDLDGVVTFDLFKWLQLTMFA
T1 sequence (P04632 1-268 partner): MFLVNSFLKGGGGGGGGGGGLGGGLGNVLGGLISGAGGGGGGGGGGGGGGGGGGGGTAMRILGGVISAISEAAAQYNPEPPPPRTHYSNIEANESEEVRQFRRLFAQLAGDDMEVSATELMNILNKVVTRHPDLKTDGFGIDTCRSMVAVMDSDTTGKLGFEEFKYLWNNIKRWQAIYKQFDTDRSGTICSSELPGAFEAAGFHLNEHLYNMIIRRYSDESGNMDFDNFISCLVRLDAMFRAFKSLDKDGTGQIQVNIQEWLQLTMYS
Put plainly: Calpain inhibition continuous fluorescence (FRET) assay, Human Calpain 1/NS1. The test is classed as biochemical. Particulars: read-out: Human Calpain 1/NS1 IC50. An outline of the steps:
(§1)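 Human calpains 1, 2 and 9 preincubated with inhibitor at 25 °C in 50 mM Tris pH 7.5, 100 mM NaCl, 1 mM DTT; reaction started with 5-FAM/QXL 520 FRET peptide plus CaCl2 for activation. Fluorescence (490/520 nm) followed 10 min; rates from 1-5 min slopes fitted to 4-parameter logistic for IC50.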

The next test addresses T2, Human Calpain 2/NS1 (Homo sapiens, UniProt P17655).
T2 sequence (P17655 1-700): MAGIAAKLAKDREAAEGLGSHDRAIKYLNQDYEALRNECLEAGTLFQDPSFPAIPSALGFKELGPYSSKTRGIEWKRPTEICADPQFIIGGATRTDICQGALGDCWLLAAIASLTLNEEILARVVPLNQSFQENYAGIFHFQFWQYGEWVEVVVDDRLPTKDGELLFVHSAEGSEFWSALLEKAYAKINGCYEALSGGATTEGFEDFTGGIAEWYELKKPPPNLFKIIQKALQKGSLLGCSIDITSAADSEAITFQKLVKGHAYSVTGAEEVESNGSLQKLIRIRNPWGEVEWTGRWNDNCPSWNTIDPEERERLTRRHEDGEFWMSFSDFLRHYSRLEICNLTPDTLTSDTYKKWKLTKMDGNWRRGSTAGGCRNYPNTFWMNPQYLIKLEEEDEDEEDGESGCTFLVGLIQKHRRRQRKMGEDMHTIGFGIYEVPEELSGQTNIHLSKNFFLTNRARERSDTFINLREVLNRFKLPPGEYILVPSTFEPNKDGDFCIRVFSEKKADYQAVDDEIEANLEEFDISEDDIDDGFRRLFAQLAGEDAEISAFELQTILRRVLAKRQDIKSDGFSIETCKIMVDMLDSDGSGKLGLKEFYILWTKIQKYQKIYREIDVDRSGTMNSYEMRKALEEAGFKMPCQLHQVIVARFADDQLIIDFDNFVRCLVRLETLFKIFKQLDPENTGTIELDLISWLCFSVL
T2 sequence (P04632 1-268 partner): T1 sequence (P04632 1-268 partner)
Put plainly: Calpain inhibition continuous fluorescence (FRET) assay, Human Calpain 2/NS1. Format: biochemical. The settings on record: read-out: Human Calpain 2/NS1 IC50. In outline: as §1

For test [1], the system named is Calpain activity in SH-SY5Y cells. Put plainly: SH-SY5Y + AMC fluorescence assay (Suc-LLVY-AMC substrate). Format: cell-based. Particulars: read-out: SH-SY5Y + AMC IC50.
Test [2] relates to Calpain activity in SH-SY5Y cells (SBDP-150). Put plainly: SH-SY5Y Spectrin western blot assay (SBDP-150 breakdown product, A23187-induced). The test is classed as cell-based. Particulars: Homo sapiens, SH-SY5Y cells, read-out: SH-SY5Y Spectrin IC50. On the technique in general: Immunoblotting shows a protein as a band on a membrane.
The next test addresses T3, Human Calpain 9/NS1 (Homo sapiens, UniProt O14815).
T3 sequence (O14815 1-690): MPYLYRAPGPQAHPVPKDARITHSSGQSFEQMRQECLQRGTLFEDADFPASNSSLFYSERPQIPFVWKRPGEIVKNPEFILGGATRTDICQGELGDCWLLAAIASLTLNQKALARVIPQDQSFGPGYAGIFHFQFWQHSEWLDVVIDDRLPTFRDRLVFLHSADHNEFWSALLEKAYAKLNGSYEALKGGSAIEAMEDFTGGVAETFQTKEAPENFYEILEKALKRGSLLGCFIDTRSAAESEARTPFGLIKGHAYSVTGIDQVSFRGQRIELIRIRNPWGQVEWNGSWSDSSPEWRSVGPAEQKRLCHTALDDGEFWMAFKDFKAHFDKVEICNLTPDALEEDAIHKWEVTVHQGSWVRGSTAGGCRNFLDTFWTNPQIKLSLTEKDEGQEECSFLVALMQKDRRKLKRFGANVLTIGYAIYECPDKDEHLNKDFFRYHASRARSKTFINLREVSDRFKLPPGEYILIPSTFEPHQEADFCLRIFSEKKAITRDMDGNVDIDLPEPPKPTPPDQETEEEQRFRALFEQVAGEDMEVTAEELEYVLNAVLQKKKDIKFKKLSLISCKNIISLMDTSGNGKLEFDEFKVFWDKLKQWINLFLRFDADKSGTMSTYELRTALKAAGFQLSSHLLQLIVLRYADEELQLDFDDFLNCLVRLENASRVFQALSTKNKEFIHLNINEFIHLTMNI
T3 sequence (P04632 1-268 partner): T1 sequence (P04632 1-268 partner)
Put plainly: Calpain inhibition continuous fluorescence (FRET) assay, Human Calpain 9/NS1. Format: biochemical. The settings on record: read-out: Human Calpain 9/NS1 IC50. An outline of the steps: as §1

[3] abbreviates: A23187-induced SBDP-150, western blot.
Setting [4] is: Column D, A23187-induced SBDP-150.

Read-outs that look alike come from different tables or passages of the source.

On to `NC(=O)C(=O)C(Cc1ccccc1)NC(=O)c1cn(C(F)F)nc1-c1ccc2cnccc2c1` (centres unmarked) [Compound 577, N-(4-amino-3,4-dioxo-1-phenylbutan-2-yl)-1-(difluoromethyl)-3-(isoquinolin-6-yl)-1H-pyrazole-4-carboxamide], for which the IC50 on Human Calpain 1/NS1 was less than 3 µM; at Human Calpain 2/NS1 it was less than 3 µM; in test [1], less than 10 µM; in test [2] (setting [3]), less than 10 µM; on Human Calpain 9/NS1, less than 3 µM.
As to `Cc1cc(C(=O)N[C@@H](Cc2ccccc2)C(=O)C(N)=O)n(-c2ncccn2)n1` [Compound 49, (S)—N-(4-amino-3,4-dioxo-1-phenylbutan-2-yl)-3-methyl-1-(pyrimidin-2-yl)-1H-pyrazole-5-carboxamide], the IC50 was less than 3 µM at Human Calpain 1/NS1 (Column A); less than 3 µM at Human Calpain 2/NS1 (Column B); less than 10 µM in test [1] (Column E); less than 10 µM in test [2] (setting [4]); less than 3 µM on Human Calpain 9/NS1 (Column C).
On to `Cn1ncc(C(=O)N[C@@H](Cc2ccccc2)C(=O)C(N)=O)c1-c1cnccn1` [Compound 174], for which the IC50 on Human Calpain 1/NS1 (Column A) is less than 3 µM; at Human Calpain 2/NS1 (Column B), less than 3 µM; in test [1] (Column E), more than 25 µM; in test [2] (setting [4]), more than 25 µM; on Human Calpain 9/NS1 (Column C) it was less than 3 µM.
For the compound `CC(C)n1cc(C(=O)NC(Cc2ccccc2)C(=O)C(N)=O)c(-c2cccc(F)c2)n1` (centres unmarked) [Compound 473, N-(4-amino-3,4-dioxo-1-phenylbutan-2-yl)-3-(3-fluorophenyl)-1-isopropyl-1H-pyrazole-4-carboxamide], the IC50 on Human Calpain 1/NS1 is less than 3 µM; on Human Calpain 2/NS1, less than 3 µM; in test [1], 10 to 25 µM; in test [2] (setting [3]), 10 to 25 µM; on Human Calpain 9/NS1, less than 3 µM.
Consider `Cn1cc(C(=O)N[C@@H](Cc2ccccc2)C(=O)C(N)=O)c(-c2cccc(C#N)c2)n1` [Compound 185, (S)—N-(4-amino-3,4-dioxo-1-phenylbutan-2-yl)-3-(3-cyanophenyl)-1-methyl-1H-pyrazole-4-carboxamide], for which the IC50 was more than 10 µM on Human Calpain 1/NS1 (Column A); 3 to 10 µM at Human Calpain 2/NS1 (Column B); more than 25 µM in test [1] (Column E); more than 25 µM in test [2] (setting [4]); 3 to 10 µM at Human Calpain 9/NS1 (Column C).
On to `O=CC(Cc1ccccc1)NC(=O)c1cn(C(F)F)nc1-c1ccccc1` (centres unmarked) [Compound 396, 1-(difluoromethyl)-N-(1-oxo-3-phenylpropan-2-yl)-3-phenyl-1H-pyrazole-4-carboxamide], for which the IC50 on Human Calpain 1/NS1 was less than 3 µM; at Human Calpain 2/NS1, less than 3 µM; in test [1], 10 to 25 µM; in test [2] (setting [3]), less than 10 µM; on Human Calpain 9/NS1, less than 3 µM.
In the case of `NC(=O)C(=O)[C@H](Cc1ccccc1)NC(=O)c1conc1-c1ccccc1F` [Compound 277, (S)—N-(4-amino-3,4-dioxo-1-phenylbutan-2-yl)-3-(2-fluorophenyl)isoxazole-4-carboxamide], the IC50 at Human Calpain 1/NS1 (Column A) was less than 3 µM; at Human Calpain 2/NS1 (Column B) it was less than 3 µM; in test [1] (Column E), less than 10 µM; in test [2] (setting [4]), 10 to 25 µM; on Human Calpain 9/NS1 (Column C) it was less than 3 µM.
In the case of `O=C[C@H](Cc1ccccc1)NC(=O)c1cn(C2CC2)nc1-c1ccccc1` [Compound 330, (S)-1-cyclopropyl-N-(1-oxo-3-phenylpropan-2-yl)-3-phenyl-1H-pyrazole-4-carboxamide], the IC50 on Human Calpain 1/NS1 is less than 3 µM; at Human Calpain 2/NS1, less than 3 µM; in test [1], 10 to 25 µM; in test [2] (setting [3]), 10 to 25 µM; at Human Calpain 9/NS1, less than 3 µM.
On to `CC[C@H](NC(=O)c1oc(C)nc1-c1ccccc1)C(=O)C(N)=O` [Compound 243, (S)—N-(1-amino-1,2-dioxopentan-3-yl)-2-methyl-4-phenyloxazole-5-carboxamide], for which the IC50 was less than 3 µM at Human Calpain 1/NS1 (Column A); less than 3 µM at Human Calpain 2/NS1 (Column B); more than 25 µM in test [1] (Column E); 10 to 25 µM in test [2] (setting [4]); less than 3 µM on Human Calpain 9/NS1 (Column C).
`NC(=O)C(=O)C(Cc1ccccc1)NC(=O)c1cn(C(F)F)nc1-c1cncc2ccccc12` (centres unmarked) [Compound 561, N-(4-amino-3,4-dioxo-1-phenylbutan-2-yl)-1-(difluoromethyl)-3-(isoquinolin-4-yl)-1H-pyrazole-4-carboxamide]: the IC50 on Human Calpain 1/NS1 was less than 3 µM; at Human Calpain 2/NS1 it was less than 3 µM; in test [1], 10 to 25 µM; in test [2] (setting [3]) it was 10 to 25 µM; at Human Calpain 9/NS1 it was less than 3 µM.
Regarding `CCn1cc(C(=O)N[C@@H](Cc2ccccc2)C(=O)C(N)=O)c(-c2ccccc2)n1` [Compound 239, (S)—N-(4-amino-3,4-dioxo-1-phenylbutan-2-yl)-1-ethyl-3-phenyl-1H-pyrazole-4-carboxamide], the IC50 at Human Calpain 1/NS1 (Column A) was less than 3 µM; on Human Calpain 2/NS1 (Column B), less than 3 µM; in test [1] (Column E), less than 10 µM; in test [2] (setting [4]), 10 to 25 µM; at Human Calpain 9/NS1 (Column C), less than 3 µM.
For `Cn1cc(C(=O)NC(Cc2ccccc2)C(=O)C(N)=O)c(-c2cccc(F)c2F)n1` (centres unmarked) [Compound 480, N-(4-amino-3,4-dioxo-1-phenylbutan-2-yl)-3-(2,3-difluorophenyl)-1-methyl-1H-pyrazole-4-carboxamide], the IC50 on Human Calpain 1/NS1 is less than 3 µM; on Human Calpain 2/NS1, less than 3 µM; in test [1], 10 to 25 µM; in test [2] (setting [3]), 10 to 25 µM; on Human Calpain 9/NS1, less than 3 µM.
Take `NC(=O)C(=O)C(Cc1ccccc1)NC(=O)c1oc(C2CC2)nc1-c1ccccc1` (centres unmarked) [Compound 393, N-(4-amino-3,4-dioxo-1-phenylbutan-2-yl)-2-cyclopropyl-4-phenyloxazole-5-carboxamide]: the IC50 is less than 3 µM on Human Calpain 1/NS1; less than 3 µM at Human Calpain 2/NS1; less than 10 µM in test [1]; 10 to 25 µM in test [2] (setting [3]); less than 3 µM on Human Calpain 9/NS1.
